Reference: patent US20250313563A1, “GLYCOGEN SYNTHASE KINASE 3 INHIBITORS AND USES THEREOF” (The Broad Institute, Inc., priority 2022, published 2025)
Like-named read-outs stand apart in the source and are kept apart here.

Assays:
[1] = target: GSK3b (GST-full length GSK3b) (Homo sapiens (Human), UniProt P49841); test: GSK3b TR-FRET kinase assay; format: biochemical
Method in brief: (§1)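 IC50s came from the normalized 665/615 TR-FRET ratio after Tb-anti-pSer641 antibody and streptavidin-d2 detection of phosphorylated biotin-glycogen synthase peptide (200 nM). ATP was 4 μM for GSK3α, 2 μM for GSK3b, or 1 mM; 1 nM enzyme, 100 min, ambient, pH 7.5, after 30-min compound preincubation.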

[2] = target: GSK3α (GST-full length GSK3α) (Homo sapiens (Human), UniProt P49840); test: GSK3α TR-FRET kinase assay; format: biochemical
Method in brief: as §1

[3] = 1 nM GSK3b, 2 μM ATP, 30 minute preincubation, Table 16, read-out: GSK3-B TR-FRET BIOCHEMICAL (TR-FRET)
[4] = 1 nM GSK3α, 4 μM ATP, 30 minute preincubation, Table 16, read-out: GSK3-A TR-FRET BIOCHEMICAL (TR-FRET)
[5] = GSK3-B (TR-FRET 1 mM ATP), GMean, IC50, 1 mM ATP, geometric mean
[6] = GSK3-A (TR-FRET 1 mM ATP), GMean, IC50, 1 mM ATP, geometric mean
[7] = 1 nM GSK3b, 2 μM ATP, 30 minute preincubation, read-out: GSK3-B TR-FRET BIOCHEMICAL (TR-FRET), IC50
[8] = 1 nM GSK3α, 4 μM ATP, 30 minute preincubation, read-out: GSK3-A TR-FRET BIOCHEMICAL (TR-FRET), IC50
[9] = read-out: GSK3-B (TR-FRET 1 mM ATP), GMean, IC50, 1 mM ATP, geometric mean
[10] = read-out: GSK3-A (TR-FRET 1 mM ATP), GMean, IC50, 1 mM ATP, geometric mean

Chain of GSK3b (GST-full length GSK3b) (P49841 whole entry): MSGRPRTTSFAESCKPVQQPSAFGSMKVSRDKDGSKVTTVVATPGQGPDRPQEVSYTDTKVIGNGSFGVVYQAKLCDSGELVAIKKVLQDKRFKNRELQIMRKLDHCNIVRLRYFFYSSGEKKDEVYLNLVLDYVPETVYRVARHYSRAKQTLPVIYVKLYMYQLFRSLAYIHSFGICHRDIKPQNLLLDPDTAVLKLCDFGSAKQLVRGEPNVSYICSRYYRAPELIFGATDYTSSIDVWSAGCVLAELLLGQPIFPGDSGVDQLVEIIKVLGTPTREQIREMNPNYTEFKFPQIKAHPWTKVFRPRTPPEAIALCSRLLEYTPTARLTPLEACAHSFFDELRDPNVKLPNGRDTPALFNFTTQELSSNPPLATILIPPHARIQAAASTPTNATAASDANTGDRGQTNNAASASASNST
Chain of GSK3α (GST-full length GSK3α) (P49840 whole entry): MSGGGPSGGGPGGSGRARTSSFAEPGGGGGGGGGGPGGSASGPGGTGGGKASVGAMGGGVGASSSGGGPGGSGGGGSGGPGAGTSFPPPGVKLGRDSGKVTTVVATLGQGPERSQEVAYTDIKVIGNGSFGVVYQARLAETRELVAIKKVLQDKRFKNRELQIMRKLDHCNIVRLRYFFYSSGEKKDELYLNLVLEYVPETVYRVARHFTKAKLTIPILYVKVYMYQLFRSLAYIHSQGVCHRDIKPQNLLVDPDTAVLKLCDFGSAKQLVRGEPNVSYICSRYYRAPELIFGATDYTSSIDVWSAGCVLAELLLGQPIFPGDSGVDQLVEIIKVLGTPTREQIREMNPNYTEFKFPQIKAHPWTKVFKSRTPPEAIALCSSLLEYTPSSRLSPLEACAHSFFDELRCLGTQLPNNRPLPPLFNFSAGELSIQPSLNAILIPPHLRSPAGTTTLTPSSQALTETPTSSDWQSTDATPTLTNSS

SMILES	IC50 [1, 7] [µM]	IC50 [2, 8] [µM]	also measured
CCc1ncc(S(=O)(=O)N2CCC3(CC2)C2=C(CC(C)(C)CC2=O)Nc2n[nH]cc23)s1 [Compound 947252]			IC50 [1, 3]: ≤ 0.1 µM; IC50 [2, 4]: ≤ 0.1 µM
CCOc1cccc(S(=O)(=O)N2CCC3(CC2)C2=C(CC(C)(C)CC2=O)Nc2n[nH]cc23)c1 [Compound 947253]			IC50 [1, 3]: ≤ 0.1 µM; IC50 [1, 5]: 1 to 5 µM; IC50 [2, 4]: ≤ 0.1 µM; IC50 [2, 6]: 0.1 to 1 µM
CC1(C)CC(=O)C2=C(C1)Nc1n[nH]cc1C21CCN(S(=O)(=O)c2cccc(C#N)c2)CC1 [Compound 947254]			IC50 [1, 3]: ≤ 0.1 µM; IC50 [1, 5]: 0.1 to 1 µM; IC50 [2, 4]: ≤ 0.1 µM; IC50 [2, 6]: ≤ 0.1 µM
CC1(C)CC(=O)C2=C(C1)Nc1n[nH]cc1C21CCN(S(=O)(=O)c2ccc(C(F)(F)F)cc2)CC1 [Compound 947256]			IC50 [1, 3]: ≤ 0.1 µM; IC50 [2, 4]: ≤ 0.1 µM
Cc1nn(C)c(C)c1S(=O)(=O)N1CCC2(CC1)C1=C(CC(C)(C)CC1=O)Nc1n[nH]cc12 [Compound 947257]			IC50 [1, 3]: 1 to 5 µM; IC50 [2, 4]: 0.1 to 1 µM
CC(C)n1ccc(S(=O)(=O)N2CCC3(CC2)C2=C(CC(C)(C)CC2=O)Nc2n[nH]cc23)n1 [Compound 947258]			IC50 [1, 3]: ≤ 0.1 µM; IC50 [2, 4]: ≤ 0.1 µM
Cc1nc(C)c(S(=O)(=O)N2CCC3(CC2)C2=C(CC(C)(C)CC2=O)Nc2n[nH]cc23)s1 [Compound 947259]			IC50 [1, 3]: ≤ 0.1 µM; IC50 [2, 4]: ≤ 0.1 µM
Cc1cccc(S(=O)(=O)N2CCC3(CC2)C2=C(CC(C)(C)CC2=O)Nc2n[nH]cc23)c1 [Compound 947261]			IC50 [1, 3]: ≤ 0.1 µM; IC50 [2, 4]: ≤ 0.1 µM
CC1(C)CC(=O)C2=C(C1)Nc1n[nH]cc1C21CCN(S(=O)(=O)c2cc(F)ccn2)CC1 [Compound 947262]			IC50 [1, 3]: 0.1 to 1 µM; IC50 [2, 4]: 0.1 to 1 µM
COc1cc(S(=O)(=O)N2CCC3(CC2)C2=C(CC(C)(C)CC2=O)Nc2n[nH]cc23)ccc1F [Compound 947263]			IC50 [1, 3]: ≤ 0.1 µM; IC50 [1, 5]: 1 to 5 µM; IC50 [2, 4]: ≤ 0.1 µM; IC50 [2, 6]: 0.1 to 1 µM
CC1(C)CC(=O)C2=C(C1)Nc1n[nH]cc1C21COC2(CN(C(=O)C3CCC(F)(F)C3)C2)C1 (stereo not shown) [Compound 947265]	0.1 to 1	≤ 0.1	
CC1(C)CC(=O)C2=C(C1)Nc1n[nH]cc1C21COC2(CN(C(=O)C3CCC(F)CC3)C2)C1 (stereo not shown) [Compound 947267]	0.1 to 1	≤ 0.1	
CCC(C)C(=O)N1CC2(C1)CC1(CO2)C2=C(CC(C)(C)CC2=O)Nc2n[nH]cc21 (stereo not shown) [Compound 947270]	0.1 to 1	≤ 0.1	
CC1(C)CC(=O)C2=C(C1)Nc1n[nH]cc1C21COC2(CN(C(=O)C3(C)CC(F)C3)C2)C1 (stereo not shown) [Compound 947271]	0.1 to 1	≤ 0.1	
CC1CCCC1C(=O)N1CC2(C1)CC1(CO2)C2=C(CC(C)(C)CC2=O)Nc2n[nH]cc21 (stereo not shown) [Compound 947274]	0.1 to 1	≤ 0.1	
CC1(C)CC(=O)C2=C(C1)Nc1n[nH]cc1C21COC2(CN(C(=O)C3CC(C)(C)C3)C2)C1 (stereo not shown) [Compound 947282]	0.1 to 1	≤ 0.1	
Cc1cccc(C(=O)N2CC3(C2)CC2(CO3)C3=C(CC(C)(C)CC3=O)Nc3n[nH]cc32)c1C (stereo not shown) [Compound 947284]	0.1 to 1	≤ 0.1	
Cc1ccc(C)c(C(=O)N2CC3(C2)CC2(CO3)C3=C(CC(C)(C)CC3=O)Nc3n[nH]cc32)c1 (stereo not shown) [Compound 947285]	0.1 to 1	≤ 0.1	
Cc1ccccc1C(=O)N1CC2(C1)CC1(CO2)C2=C(CC(C)(C)CC2=O)Nc2n[nH]cc21 (stereo not shown) [Compound 947287]	0.1 to 1	≤ 0.1	
CC1(C)CC(=O)C2=C(C1)Nc1n[nH]cc1C21COC2(CN(C(=O)C3CCCCC3)C2)C1 (stereo not shown) [Compound 947291]	0.1 to 1	≤ 0.1	
Cc1ccc(C(=O)N2CC3(C2)CC2(CO3)C3=C(CC(C)(C)CC3=O)Nc3n[nH]cc32)c(C)c1 (stereo not shown) [Compound 947294]	0.1 to 1	≤ 0.1	
CC1(C)CC(=O)C2=C(C1)Nc1n[nH]cc1C21COC2(CN(C(=O)CC3CCC3)C2)C1 (stereo not shown) [Compound 947299]	≤ 0.1	≤ 0.1	
CCCC(=O)N1CC2(C1)CC1(CO2)C2=C(CC(C)(C)CC2=O)Nc2n[nH]cc21 (stereo not shown) [Compound 947300]	≤ 0.1	≤ 0.1	

Continued, in another order:

IC50 [1, 7] [µM]	IC50 [2, 8] [µM]	SMILES	also measured
≤ 0.1	≤ 0.1	COc1ccc(S(=O)(=O)N2CCC3(CC2)C2=C(CC(C)(C)CC2=O)Nc2n[nH]cc23)c(F)c1 [Compound 947255]	IC50 [1, 5]: 0.1 to 1 µM; IC50 [2, 6]: ≤ 0.1 µM
≤ 0.1	≤ 0.1	COc1ncccc1S(=O)(=O)N1CCC2(CC1)C1=C(CC(C)(C)CC1=O)Nc1n[nH]cc12 [Compound 947260]	IC50 [1, 5]: 0.1 to 1 µM; IC50 [2, 6]: ≤ 0.1 µM
≤ 0.1	≤ 0.1	CC1(C)CC(=O)C2=C(C1)Nc1n[nH]cc1C21CCN(S(=O)(=O)c2cccc(C(F)F)c2)CC1 [Compound 947264]	IC50 [1, 5]: 0.1 to 1 µM; IC50 [2, 6]: ≤ 0.1 µM
≤ 0.1	≤ 0.1	CC1CC(C(=O)N2CC3(C2)CC2(CO3)C3=C(CC(C)(C)CC3=O)Nc3n[nH]cc32)C1 (stereo not shown) [Compound 947266]	
≤ 0.1	≤ 0.1	CC1CCC(C(=O)N2CC3(C2)CC2(CO3)C3=C(CC(C)(C)CC3=O)Nc3n[nH]cc32)C1 (stereo not shown) [Compound 947268]	
≤ 0.1	≤ 0.1	CC1CCC(CC(=O)N2CC3(C2)CC2(CO3)C3=C(CC(C)(C)CC3=O)Nc3n[nH]cc32)C1 (stereo not shown) [Compound 947269]	IC50 [1, 9]: 0.1 to 1 µM; IC50 [2, 10]: 0.1 to 1 µM
≤ 0.1	≤ 0.1	CC1(C)CC(=O)C2=C(C1)Nc1n[nH]cc1C21COC2(CN(C(=O)C3CC3(F)F)C2)C1 (stereo not shown) [Compound 947272]	
≤ 0.1	≤ 0.1	CC(C)C1CC(C(=O)N2CC3(C2)CC2(CO3)C3=C(CC(C)(C)CC3=O)Nc3n[nH]cc32)C1 (stereo not shown) [Compound 947273]	
≤ 0.1	≤ 0.1	CC1(C)CC(=O)C2=C(C1)Nc1n[nH]cc1C21COC2(CN(C(=O)C(C)(F)F)C2)C1 (stereo not shown) [Compound 947275]	IC50 [1, 9]: 0.1 to 1 µM; IC50 [2, 10]: 0.1 to 1 µM
≤ 0.1	≤ 0.1	CC1(C)CC(=O)C2=C(C1)Nc1n[nH]cc1C21COC2(CN(C(=O)C(C)(C)F)C2)C1 (stereo not shown) [Compound 947276]	
≤ 0.1	≤ 0.1	CC1(C)CC(=O)C2=C(C1)Nc1n[nH]cc1C21COC2(CN(C(=O)C3(F)CCCC3)C2)C1 (stereo not shown) [Compound 947277]	
≤ 0.1	≤ 0.1	CC1(C)CC(=O)C2=C(C1)Nc1n[nH]cc1C21COC2(CN(C(=O)CC3CC(F)(F)C3)C2)C1 (stereo not shown) [Compound 947278]	
≤ 0.1	≤ 0.1	CC1(C)CC(=O)C2=C(C1)Nc1n[nH]cc1C21COC2(CN(C(=O)C3(F)CCC3)C2)C1 (stereo not shown) [Compound 947279]	
≤ 0.1	≤ 0.1	CC1(C)CC(=O)C2=C(C1)Nc1n[nH]cc1C21COC2(CN(C(=O)C(F)(F)F)C2)C1 (stereo not shown) [Compound 947280]	
≤ 0.1	≤ 0.1	Cc1ccc(CC(=O)N2CC3(C2)CC2(CO3)C3=C(CC(C)(C)CC3=O)Nc3n[nH]cc32)cc1 (stereo not shown) [Compound 947281]	IC50 [1, 9]: 0.1 to 1 µM; IC50 [2, 10]: 0.1 to 1 µM
≤ 0.1	≤ 0.1	CC1(C)CC(=O)C2=C(C1)Nc1n[nH]cc1C21COC2(CN(C(=O)c3cccc(F)c3)C2)C1 (stereo not shown) [Compound 947283]	
≤ 0.1	≤ 0.1	Cc1ccc(C(=O)N2CC3(C2)CC2(CO3)C3=C(CC(C)(C)CC3=O)Nc3n[nH]cc32)cc1C (stereo not shown) [Compound 947286]	
≤ 0.1	≤ 0.1	CC1(C)CC(=O)C2=C(C1)Nc1n[nH]cc1C21COC2(CN(C(=O)C3CCC3)C2)C1 (stereo not shown) [Compound 947288]	IC50 [1, 9]: 0.1 to 1 µM; IC50 [2, 10]: 0.1 to 1 µM
≤ 0.1	≤ 0.1	CC1(C)CC(=O)C2=C(C1)Nc1n[nH]cc1C21COC2(CN(C(=O)c3ccccc3F)C2)C1 (stereo not shown) [Compound 947289]	
≤ 0.1	≤ 0.1	Cc1ccc(C(=O)N2CC3(C2)CC2(CO3)C3=C(CC(C)(C)CC3=O)Nc3n[nH]cc32)cc1 (stereo not shown) [Compound 947290]	
≤ 0.1	≤ 0.1	CC1(C)CC(=O)C2=C(C1)Nc1n[nH]cc1C21COC2(CN(C(=O)c3ccc(F)cc3)C2)C1 (stereo not shown) [Compound 947292]	
≤ 0.1	≤ 0.1	CC1(C)CC(=O)C2=C(C1)Nc1n[nH]cc1C21COC2(CN(C(=O)CC3CCCC3)C2)C1 (stereo not shown) [Compound 947293]	
≤ 0.1	≤ 0.1	Cc1ccccc1CC(=O)N1CC2(C1)CC1(CO2)C2=C(CC(C)(C)CC2=O)Nc2n[nH]cc21 (stereo not shown) [Compound 947295]	
≤ 0.1	≤ 0.1	Cc1cc(C)cc(C(=O)N2CC3(C2)CC2(CO3)C3=C(CC(C)(C)CC3=O)Nc3n[nH]cc32)c1 (stereo not shown) [Compound 947296]	
≤ 0.1	≤ 0.1	CC1(C)CC(=O)C2=C(C1)Nc1n[nH]cc1C21COC2(CN(C(=O)C3CC3)C2)C1 (stereo not shown) [Compound 947297]	
≤ 0.1	≤ 0.1	CC1(C)CC(=O)C2=C(C1)Nc1n[nH]cc1C21COC2(CN(C(=O)CC3CC3)C2)C1 (stereo not shown) [Compound 947298]	
